Reference: ChEMBL document CHEMBL3351422, “Discovery of N-substituted 7-azaindoline derivatives as potent, orally available M1 and M4 muscarinic acetylcholine receptors selective agonists” (Bioorg Med Chem Lett, 2014)

Experiments:
Rattus norvegicus [1] = species: Rattus norvegicus; experiment: Inhibition of rat GABAB type receptor at 3 uM by radioligand binding assay
[2] = target: Sodium-dependent dopamine transporter (Homo sapiens) (UniProt Q01959); experiment: Inhibition of human DAT at 3 uM by radioligand binding assay
[3] = target: L-type calcium channel, benzothiazepine binding site (Rattus norvegicus, UniProt P22002+P27732+Q02485); experiment: Inhibition of rat L-type calcium channel benzothiazepine binding site at 3 uM by radioligand binding assay; assay type: protein assay
[4] = Clearance in monkey at 0.25 mg/kg, iv and 2.5 mg/kg, po; assay type: ADME, organism-based, Macaca mulatta; details: rhesus monkey, in vivo
Rattus norvegicus [5] = species: Rattus norvegicus; experiment: Inhibition of rat Rolipram binding site at 3 uM by radioligand binding assay
[6] = target: Muscarinic acetylcholine receptor M3 (Homo sapiens) (UniProt P20309); experiment: Intrinsic activity at muscarinic M3 receptor (unknown origin) at 10 uM by calcium mobilization assay; assay type: functional
[7] = target: Alpha-1B adrenergic receptor (Rattus norvegicus) (UniProt P15823); experiment: Inhibition of rat alpha1B adrenergic receptor at 3 uM by radioligand binding assay
[8] = target: Alpha-1D adrenergic receptor (Homo sapiens) (UniProt P25100); experiment: Inhibition of human alpha1D adrenergic receptor at 3 uM by radioligand binding assay
[9] = target: Acetylcholinesterase (Homo sapiens) (UniProt P22303); experiment: Inhibition of human acetylcholinesterase at 3 uM by radioligand binding assay
[10] = target: Sodium-dependent serotonin transporter (Homo sapiens) (UniProt P31645); experiment: Inhibition of human SERT at 3 uM by radioligand binding assay
[11] = target: T1, Muscarinic acetylcholine receptor M4 (Homo sapiens) (UniProt P08173); experiment: Intrinsic activity at muscarinic M4 receptor (unknown origin) by calcium mobilization assay; assay type: functional
T1 sequence (whole entry): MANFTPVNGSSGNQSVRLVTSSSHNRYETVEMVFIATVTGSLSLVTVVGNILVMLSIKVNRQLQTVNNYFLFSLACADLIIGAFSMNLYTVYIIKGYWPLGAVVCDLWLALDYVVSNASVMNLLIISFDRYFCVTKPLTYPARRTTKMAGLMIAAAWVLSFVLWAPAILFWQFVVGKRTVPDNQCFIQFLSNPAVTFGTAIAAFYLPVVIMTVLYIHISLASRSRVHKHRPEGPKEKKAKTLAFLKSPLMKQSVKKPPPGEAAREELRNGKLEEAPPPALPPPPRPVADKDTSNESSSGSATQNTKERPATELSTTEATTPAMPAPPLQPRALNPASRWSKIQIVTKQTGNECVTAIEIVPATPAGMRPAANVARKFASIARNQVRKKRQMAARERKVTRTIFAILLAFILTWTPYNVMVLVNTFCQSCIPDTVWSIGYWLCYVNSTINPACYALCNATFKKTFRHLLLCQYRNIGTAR

[12] = Volume of distribution at steady state in rat at 0.25 mg/kg, iv and 2.5 mg/kg, po; assay type: ADME, organism-based; details: in vivo, read-out: Vdss
[13] = Volume of distribution at steady state in monkey at 0.25 mg/kg, iv and 2.5 mg/kg, po; assay type: ADME, organism-based, Macaca mulatta; details: rhesus monkey, in vivo, read-out: Vdss
Rattus norvegicus [14] = experiment: Antipsychotic-like effect in po dosed rat assessed as methamphetamine-induced locomotor hyperactivity; assay type: functional
[15] = target: Voltage-gated inwardly rectifying potassium channel KCNH2 (Homo sapiens, UniProt Q12809); experiment: Inhibition of human ERG channel
[16] = target: D(2) dopamine receptor (Homo sapiens) (UniProt P14416); experiment: Inhibition of human dopamine D2S receptor at 3 uM by radioligand binding assay
[17] = Oral bioavailability in monkey at 2.5 mg/kg; assay type: ADME, organism-based, Macaca mulatta; details: rhesus monkey, in vivo
[18] = Blood brain barrier penetration in rat at 0.25 mg/kg, iv and 2.5 mg/kg, po; assay type: ADME, organism-based
[19] = target: Substance-P receptor (Homo sapiens) (UniProt P25103); experiment: Inhibition of human NK1 receptor at 3 uM by radioligand binding assay
hERG (KCNH2) = hERG (KCNH2) (Homo sapiens, UniProt Q12809); experiment: Inhibition of human ERG channel at 3 uM by radioligand binding assay
[20] = target: Glutamate NMDA receptor (Rattus norvegicus) (UniProt P35439+Q00959+Q00960+Q00961+Q62645+Q8VHN2+Q9R1M7); experiment: Inhibition of rat NMDA receptor agonist binding site at 3 uM by radioligand binding assay; assay type: protein-complex assay
[21] = target: Kappa-type opioid receptor (Homo sapiens) (UniProt P41145); experiment: Inhibition of human kappa opioid receptor at 3 uM by radioligand binding assay
[22] = target: Neuronal acetylcholine receptor; alpha4/beta2 (Rattus norvegicus) (UniProt P09483+P12390); experiment: Displacement of [3H]cytisine from rat alpha4beta2 nAChR; assay type: protein-complex assay; details: concentration not given here
[23] = target: Muscarinic acetylcholine receptor M3 (Homo sapiens) (UniProt P20309); experiment: Agonist activity at muscarinic M3 receptor (unknown origin) at 0.3 uM by calcium mobilization assay; assay type: functional
[24] = Cmax in monkey at 0.25 mg/kg, iv and 2.5 mg/kg, po; assay type: ADME, organism-based, Macaca mulatta; details: rhesus monkey, in vivo
[25] = Half life in monkey at 0.25 mg/kg, iv and 2.5 mg/kg, po; assay type: ADME, organism-based, Macaca mulatta; details: rhesus monkey, in vivo
[26] = target: Cannabinoid receptor 1 (Homo sapiens) (UniProt P21554); experiment: Inhibition of human CB1 receptor at 3 uM by radioligand binding assay
[27] = target: Gamma-aminobutyric acid type B receptor subunit 1 (Homo sapiens) (UniProt Q9UBS5); experiment: Inhibition of human GABAB1A receptor at 3 uM by radioligand binding assay
[28] = target: Adenosine receptor A2a (Homo sapiens) (UniProt P29274); experiment: Inhibition of human adenosine A2A receptor at 3 uM by radioligand binding assay
[29] = target: 5-hydroxytryptamine receptor 1A (Homo sapiens) (UniProt P08908); experiment: Inhibition of human 5-HT1A receptor at 3 uM by radioligand binding assay
Rattus norvegicus [30] = species: Rattus norvegicus; experiment: Inhibition of rat GABAA central type receptor flunitrazepam binding site at 3 uM by radioligand binding assay
[31] = target: T2, Muscarinic acetylcholine receptor M2 (Homo sapiens) (UniProt P08172); experiment: Intrinsic activity at muscarinic M2 receptor (unknown origin) at 10 uM by calcium mobilization assay; assay type: functional
T2 sequence (whole entry): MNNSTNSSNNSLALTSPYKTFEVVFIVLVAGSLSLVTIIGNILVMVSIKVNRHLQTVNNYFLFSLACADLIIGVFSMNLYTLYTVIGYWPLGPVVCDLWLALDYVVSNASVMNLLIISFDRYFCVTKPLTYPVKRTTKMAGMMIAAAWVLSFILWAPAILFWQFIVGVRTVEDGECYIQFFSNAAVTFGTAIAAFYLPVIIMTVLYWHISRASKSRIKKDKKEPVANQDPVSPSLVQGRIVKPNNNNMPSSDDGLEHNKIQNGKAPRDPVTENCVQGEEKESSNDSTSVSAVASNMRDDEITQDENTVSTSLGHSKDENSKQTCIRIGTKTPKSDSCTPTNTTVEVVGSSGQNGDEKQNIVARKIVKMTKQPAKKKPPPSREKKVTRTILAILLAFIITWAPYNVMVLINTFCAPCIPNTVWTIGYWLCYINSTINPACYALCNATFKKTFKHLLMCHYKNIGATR

Sequence of Muscarinic acetylcholine receptor M3 (Homo sapiens) (P20309 whole entry, looked up): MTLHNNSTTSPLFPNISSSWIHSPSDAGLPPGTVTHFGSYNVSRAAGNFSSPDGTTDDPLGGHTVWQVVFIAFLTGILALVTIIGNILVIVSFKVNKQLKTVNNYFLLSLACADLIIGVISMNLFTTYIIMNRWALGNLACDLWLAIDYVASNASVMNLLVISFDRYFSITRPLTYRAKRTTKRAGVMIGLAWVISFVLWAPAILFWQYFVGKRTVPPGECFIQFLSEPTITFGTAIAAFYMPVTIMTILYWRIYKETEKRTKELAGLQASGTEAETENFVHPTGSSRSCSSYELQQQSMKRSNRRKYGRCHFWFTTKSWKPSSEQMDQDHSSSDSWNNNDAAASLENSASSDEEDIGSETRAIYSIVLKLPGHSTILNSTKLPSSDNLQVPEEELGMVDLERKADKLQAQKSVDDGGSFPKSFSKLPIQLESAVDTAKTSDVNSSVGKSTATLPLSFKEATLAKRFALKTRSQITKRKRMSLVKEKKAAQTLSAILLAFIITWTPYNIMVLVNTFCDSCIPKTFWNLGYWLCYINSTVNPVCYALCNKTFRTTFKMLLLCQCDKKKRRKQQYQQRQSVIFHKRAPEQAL
Sequence of Sodium-dependent serotonin transporter (Homo sapiens) (P31645 whole entry, looked up): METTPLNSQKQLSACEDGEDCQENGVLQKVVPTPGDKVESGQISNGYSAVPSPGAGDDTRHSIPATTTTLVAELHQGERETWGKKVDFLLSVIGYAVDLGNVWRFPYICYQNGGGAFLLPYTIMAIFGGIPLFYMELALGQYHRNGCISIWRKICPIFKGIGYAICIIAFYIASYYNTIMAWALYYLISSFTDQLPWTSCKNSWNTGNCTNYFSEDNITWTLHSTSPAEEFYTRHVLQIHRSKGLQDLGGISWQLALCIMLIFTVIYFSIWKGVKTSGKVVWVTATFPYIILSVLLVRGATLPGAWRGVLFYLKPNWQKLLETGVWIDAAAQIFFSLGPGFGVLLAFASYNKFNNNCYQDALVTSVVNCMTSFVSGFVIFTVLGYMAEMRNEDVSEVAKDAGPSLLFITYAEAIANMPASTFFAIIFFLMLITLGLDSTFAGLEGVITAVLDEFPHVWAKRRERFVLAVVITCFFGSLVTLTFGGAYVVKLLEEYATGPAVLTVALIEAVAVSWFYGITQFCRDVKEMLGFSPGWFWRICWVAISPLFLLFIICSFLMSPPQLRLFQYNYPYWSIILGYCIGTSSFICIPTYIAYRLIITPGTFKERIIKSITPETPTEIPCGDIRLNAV
Sequence of Alpha-1B adrenergic receptor (Rattus norvegicus) (P15823 whole entry): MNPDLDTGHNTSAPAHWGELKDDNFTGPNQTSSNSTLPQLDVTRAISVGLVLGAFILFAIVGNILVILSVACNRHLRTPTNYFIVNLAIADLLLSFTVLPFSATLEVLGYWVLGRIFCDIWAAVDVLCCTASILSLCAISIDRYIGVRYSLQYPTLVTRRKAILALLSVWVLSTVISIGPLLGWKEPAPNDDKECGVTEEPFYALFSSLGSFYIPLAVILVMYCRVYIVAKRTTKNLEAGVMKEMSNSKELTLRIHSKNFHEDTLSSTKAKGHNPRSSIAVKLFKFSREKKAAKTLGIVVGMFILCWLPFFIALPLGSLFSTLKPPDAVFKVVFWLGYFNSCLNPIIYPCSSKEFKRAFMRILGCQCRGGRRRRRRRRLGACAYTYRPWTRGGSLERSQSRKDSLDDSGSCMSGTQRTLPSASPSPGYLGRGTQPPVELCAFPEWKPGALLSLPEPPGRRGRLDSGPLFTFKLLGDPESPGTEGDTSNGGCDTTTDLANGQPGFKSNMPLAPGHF
Sequence of 5-hydroxytryptamine receptor 1A (Homo sapiens) (P08908 whole entry): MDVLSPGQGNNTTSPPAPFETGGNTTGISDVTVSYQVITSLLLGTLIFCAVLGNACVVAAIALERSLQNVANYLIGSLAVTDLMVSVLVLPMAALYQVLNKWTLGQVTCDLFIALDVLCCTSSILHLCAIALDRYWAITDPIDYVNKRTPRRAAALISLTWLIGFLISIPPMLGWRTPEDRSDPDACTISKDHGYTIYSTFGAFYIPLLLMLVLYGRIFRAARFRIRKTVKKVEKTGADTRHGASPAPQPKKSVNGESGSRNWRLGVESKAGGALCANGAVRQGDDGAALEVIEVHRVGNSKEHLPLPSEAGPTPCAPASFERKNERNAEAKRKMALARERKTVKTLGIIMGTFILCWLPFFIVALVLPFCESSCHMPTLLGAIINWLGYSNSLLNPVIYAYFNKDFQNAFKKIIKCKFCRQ
Sequence of Acetylcholinesterase (Homo sapiens) (P22303 whole entry): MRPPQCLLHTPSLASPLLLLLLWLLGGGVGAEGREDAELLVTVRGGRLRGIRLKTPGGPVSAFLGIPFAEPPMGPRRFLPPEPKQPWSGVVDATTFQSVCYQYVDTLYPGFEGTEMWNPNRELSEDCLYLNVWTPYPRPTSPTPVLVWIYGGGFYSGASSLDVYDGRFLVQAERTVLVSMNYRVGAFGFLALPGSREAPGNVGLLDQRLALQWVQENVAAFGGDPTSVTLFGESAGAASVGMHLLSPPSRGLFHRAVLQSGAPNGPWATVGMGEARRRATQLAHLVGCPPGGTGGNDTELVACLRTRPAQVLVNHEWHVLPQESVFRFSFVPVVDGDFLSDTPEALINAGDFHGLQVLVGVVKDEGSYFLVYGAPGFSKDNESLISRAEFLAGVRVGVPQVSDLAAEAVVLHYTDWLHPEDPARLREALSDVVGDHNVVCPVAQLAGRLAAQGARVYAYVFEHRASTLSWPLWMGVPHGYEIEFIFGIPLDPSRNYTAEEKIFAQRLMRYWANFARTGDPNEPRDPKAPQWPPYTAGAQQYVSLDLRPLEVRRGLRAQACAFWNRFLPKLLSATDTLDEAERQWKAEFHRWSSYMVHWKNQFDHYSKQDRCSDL
Sequence of Cannabinoid receptor 1 (Homo sapiens) (P21554 whole entry): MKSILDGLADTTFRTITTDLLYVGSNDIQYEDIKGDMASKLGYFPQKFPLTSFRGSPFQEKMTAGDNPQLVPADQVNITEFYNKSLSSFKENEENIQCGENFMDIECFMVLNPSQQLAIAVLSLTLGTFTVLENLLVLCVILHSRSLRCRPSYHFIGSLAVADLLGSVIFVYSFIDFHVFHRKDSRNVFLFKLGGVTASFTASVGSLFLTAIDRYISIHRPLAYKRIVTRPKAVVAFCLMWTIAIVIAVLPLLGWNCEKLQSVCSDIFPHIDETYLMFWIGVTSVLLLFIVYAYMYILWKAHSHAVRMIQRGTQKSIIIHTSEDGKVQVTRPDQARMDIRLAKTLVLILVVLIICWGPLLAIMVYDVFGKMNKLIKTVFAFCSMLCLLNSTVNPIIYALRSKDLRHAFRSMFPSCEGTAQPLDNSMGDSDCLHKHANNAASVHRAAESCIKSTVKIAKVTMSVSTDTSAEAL
Sequence of D(2) dopamine receptor (Homo sapiens) (P14416 whole entry): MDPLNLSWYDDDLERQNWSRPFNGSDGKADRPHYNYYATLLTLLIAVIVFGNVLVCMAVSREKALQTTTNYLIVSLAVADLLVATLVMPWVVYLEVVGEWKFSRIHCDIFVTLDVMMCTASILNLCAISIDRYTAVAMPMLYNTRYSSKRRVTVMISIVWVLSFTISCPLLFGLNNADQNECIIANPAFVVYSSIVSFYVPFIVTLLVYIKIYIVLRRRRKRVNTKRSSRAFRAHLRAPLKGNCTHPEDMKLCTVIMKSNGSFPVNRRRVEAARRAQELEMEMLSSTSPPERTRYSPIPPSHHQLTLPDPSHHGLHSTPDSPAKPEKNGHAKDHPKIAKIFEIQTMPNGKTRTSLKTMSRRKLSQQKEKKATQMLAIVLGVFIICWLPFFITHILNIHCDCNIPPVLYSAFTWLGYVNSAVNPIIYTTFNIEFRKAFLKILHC
Sequence of hERG (KCNH2) (Q12809 whole entry): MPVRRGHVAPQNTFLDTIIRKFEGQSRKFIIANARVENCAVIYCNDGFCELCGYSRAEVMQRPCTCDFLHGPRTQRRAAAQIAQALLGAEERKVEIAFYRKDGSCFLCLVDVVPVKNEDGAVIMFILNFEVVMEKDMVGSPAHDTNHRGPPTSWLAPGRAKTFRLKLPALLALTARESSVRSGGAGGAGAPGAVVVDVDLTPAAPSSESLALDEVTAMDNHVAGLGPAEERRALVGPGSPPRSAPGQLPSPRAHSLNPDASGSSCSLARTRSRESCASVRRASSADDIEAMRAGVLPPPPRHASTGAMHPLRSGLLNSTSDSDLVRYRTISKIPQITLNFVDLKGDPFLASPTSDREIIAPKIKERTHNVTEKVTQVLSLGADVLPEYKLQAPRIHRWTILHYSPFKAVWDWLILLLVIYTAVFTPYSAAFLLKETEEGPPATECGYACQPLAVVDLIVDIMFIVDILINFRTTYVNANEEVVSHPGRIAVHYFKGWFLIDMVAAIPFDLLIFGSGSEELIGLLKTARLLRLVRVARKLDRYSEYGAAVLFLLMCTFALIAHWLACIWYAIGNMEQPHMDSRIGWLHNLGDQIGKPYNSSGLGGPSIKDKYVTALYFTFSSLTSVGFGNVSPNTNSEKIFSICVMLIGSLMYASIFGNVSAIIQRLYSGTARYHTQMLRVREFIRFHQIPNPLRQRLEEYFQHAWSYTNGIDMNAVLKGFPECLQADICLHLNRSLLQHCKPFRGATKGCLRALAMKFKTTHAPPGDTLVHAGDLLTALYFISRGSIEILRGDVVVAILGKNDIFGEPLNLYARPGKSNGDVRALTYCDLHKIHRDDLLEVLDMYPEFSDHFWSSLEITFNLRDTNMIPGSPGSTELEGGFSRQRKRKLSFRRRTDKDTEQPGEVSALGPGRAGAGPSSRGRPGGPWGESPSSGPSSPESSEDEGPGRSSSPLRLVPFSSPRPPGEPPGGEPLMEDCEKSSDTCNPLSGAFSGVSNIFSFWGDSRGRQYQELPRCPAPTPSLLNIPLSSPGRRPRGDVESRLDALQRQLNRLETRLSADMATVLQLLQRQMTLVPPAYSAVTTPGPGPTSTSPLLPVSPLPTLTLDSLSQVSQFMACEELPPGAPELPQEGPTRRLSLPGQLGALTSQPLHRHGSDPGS

`CCOC(=O)N1CCC(CN2CCC3(CC2)CN(C(=O)N(C)C)c2ncccc23)CC1.O=C(O)/C=C/C(=O)O` showed an inhibition (Rattus norvegicus [1]) of 14%, an inhibition [2] of -2% and an inhibition at 3 µM [3] of -21%. It also gave a clearance [4] of 16.5 mL/min/kg, an inhibition (Rattus norvegicus [5]) of 16% and an Intrinsic activity [6] of 2%. For the same compound, the inhibition [7] was 9%, the inhibition [8] was 10% and the inhibition [9] was 5%. It also gave an inhibition [10] of 3%, an Intrinsic activity [11] of 108% and a Vd [12] of 1.8 L/kg. The Vd [13] was 2.3 L/kg, the ED50 (Rattus norvegicus [14]) was 1.44 mg/kg and the IC50 [15] was greater than 10 µM. For the same compound, the inhibition [16] was 2%, the bioavailability [17] was 39.8% and the Kp [18] was 0.7. The inhibition [19] was 2%, the inhibition at 3 µM (hERG (KCNH2)) was 0% and the inhibition [20] was 4%. For the same compound, the inhibition [21] was 7%, the inhibition [22] was 11% and the Activity [23] was 2%. For the same compound, the Cmax [24] was 30.7 ng/mL, the half-life [25] was 4.76 h and the inhibition [26] was 11%. For the same compound, the inhibition [27] was 2%, the inhibition [28] was 7% and the inhibition [29] was -6%. For the same compound, the inhibition (Rattus norvegicus [30]) was -5% and the Intrinsic activity [31] was 5%.
